Tests used:
Assay in all cases: selective drug sensitivity score (sDSS, relative to normal bone marrow) (sDSS (score)); higher = more potent and effective on the cell line relative to normal bone marrow cells
Settings in all cases: 72 h
380 = test system: 380
ALL-PO = test system: ALL-PO
CCRF-CEM = test system: CCRF-CEM
COG-LL-317 = test system: COG-LL-317
COG-LL-319h = test system: COG-LL-319h
COG-LL-394h = test system: COG-LL-394h
DND-41 = test system: DND-41
HPB-ALL = test system: HPB-ALL
KASUMI-10 = test system: KASUMI-10
KASUMI-2 = test system: KASUMI-2
LC4-1 = test system: LC4-1
MHH-CALL-2 = test system: MHH-CALL-2
MHH-CALL-4 = test system: MHH-CALL-4
NALM-6 = test system: NALM-6
RCH-ACV = test system: RCH-ACV
REH = test system: REH
RPMI-8402 = test system: RPMI-8402
SEM cells = test system: SEM cells
SUP-B15 = test system: SUP-B15
TANOUE = test system: TANOUE
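Also: ALL cell lines in 384-well plates, five doses spanning 10,000-fold, each plate scaled between vehicle and 100 µmol/L benzalkonium chloride controls, sDSS an adapted area-under-curve metric.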

Row | SMILES | selective drug sensitivity score 380 | selective drug sensitivity score (ALL-PO) | selective drug sensitivity score (CCRF-CEM) | selective drug sensitivity score (COG-LL-317) | selective drug sensitivity score (COG-LL-319h) | selective drug sensitivity score (COG-LL-394h) | selective drug sensitivity score (DND-41) | selective drug sensitivity score (HPB-ALL) | selective drug sensitivity score (KASUMI-10) | selective drug sensitivity score (KASUMI-2) | selective drug sensitivity score (LC4-1) | selective drug sensitivity score (MHH-CALL-2) | selective drug sensitivity score (MHH-CALL-4) | selective drug sensitivity score (NALM-6) | selective drug sensitivity score (RCH-ACV) | selective drug sensitivity score (REH) | selective drug sensitivity score (RPMI-8402) | selective drug sensitivity score (SEM cells) | selective drug sensitivity score (SUP-B15) | selective drug sensitivity score (TANOUE)
1 | COc1ccc(-c2nc(N3CCOCC3)c3sc(CN(C)c4ncc(C(=O)NO)cn4)cc3n2)cn1 [Fimepinostat (CUDC-907)] (top concentration 10000 nM) | 10.3 | 6.48 | 6.88 | 7.58 | -3.82 | 3.28 | 4.68 | -4.02 | 9.18 | 8.88 | 8.68 | 10.3 | 9.68 | 8.68 | 10.9 | 2.78 | 5.28 | 8.68 | 10.7 | -14.8
2 | CCOC(=O)CCNc1cc(N2CCc3ccccc3CC2)nc(-c2ccccn2)n1 [GSK-J4] (top concentration 100000 nM) | -9.38 | -7.18 | -6.68 | -2.78 | 3.22 | -9.68 | -6.88 | 1.62 | -11.8 | -10.8 | -9.58 | -7.18 | -8.98 | -9.98 | -8.58 | -7.88 | -8.18 | -8.58 | -8.48 | -11.6
3 | Cc1cc(Nc2cc(CN3CCOCC3)c3nc(C)c(Cc4ccc(Cl)cc4F)n3n2)n[nH]1 [Gandotinib] (top concentration 10000 nM) | -8.02 | 4.98 | 5.68 | 8.68 | 8.68 | 0.88 | 7.28 | 1.58 | 7.28 | 7.18 | 6.98 | 7.48 | 4.78 | 4.58 | 8.88 | 4.98 | 0.78 | 10.5 | 7.78 | -7.72
4 | NC(=O)NO [Hydroxyurea] (top concentration 1000000 nM) | -1.04 | -4.54 | 3.96 | 15.4 | 9.26 | -1.74 | 1.16 | -1.24 | 1.86 | -2.14 | 5.26 | 4.56 | -1.04 | 2.56 | 9.66 | 4.06 | 3.46 | 5.36 | 9.96 | -3.94
5 | Cc1ccc(NC(=O)c2ccc(CN3CCN(C)CC3)cc2)cc1Nc1nccc(-c2cccnc2)n1 [Imatinib] (top concentration 10000 nM) | -0.44 | 1.86 | -0.44 | 1.36 | 0.06 | 3.06 | 0.26 | 1.06 | -0.44 | -0.44 | 0.36 | 0.16 | -0.44 | -0.44 | 2.16 | 0.56 | 1.46 | 0.06 | 17.4 | -0.44
6 | CC(C)NC[C@@H](C(=O)N1CCN(c2ncnc3c2[C@H](C)C[C@H]3O)CC1)c1ccc(Cl)cc1 [Ipatasertib] (top concentration 10000 nM) | 7 | 6.7 | 10.7 | 11 | 2.4 | -0.3 | 1.1 | 0.9 | 0.7 | 7.9 | -0.6 | 4.7 | 4.5 | 6.2 | 12 | 13.2 | 4.8 | 3.3 | 0.8 | -1.8
7 | CCC(C)n1ncn(-c2ccc(N3CCN(c4ccc(OCC5COC(Cn6cncn6)(c6ccc(Cl)cc6Cl)O5)cc4)CC3)cc2)c1=O (stereo not given) [Itraconazole] (top concentration 5000 nM) | -1.72 | 1.88 | -1.22 | -2.12 | 10.7 | 1.88 | 6.98 | 5.68 | -4.32 | -3.22 | 2.88 | 5.48 | -0.12 | -1.02 | 5.48 | -4.32 | 0.98 | -2.32 | 1.18 | -2.92
8 | Cc1sc2c(c1C)C(c1ccc(Cl)cc1)=N[C@@H](CC(=O)OC(C)(C)C)c1nnc(C)n1-2 [JQ1] (top concentration 10000 nM) | -0.88 | 4.62 | 1.32 | 6.62 | 12.1 | -2.88 | 2.52 | 1.32 | 7.22 | -5.08 | 5.02 | 9.62 | 8.52 | 4.32 | 12.3 | -3.58 | 3.12 | 11.4 | 3.02 | -7.48
9 | CCNC(=O)c1noc(-c2cc(C(C)C)c(O)cc2O)c1-c1ccc(CN2CCOCC2)cc1 [Luminespib] (top concentration 1000 nM) | 6.3 | 4.6 | -0.5 | 7.4 | 3.1 | -5.2 | -2 | -2.5 | 4.4 | 6.5 | -1.4 | -3.9 | 1.7 | -0.5 | 3.6 | -1.5 | -3.8 | 2.1 | -1 | -10.5
10 | O=C(c1cccc(Cl)c1F)N1CCN(Cc2cccc(Nc3nccs3)n2)CC1 [MK-8745] (top concentration 10000 nM) | 18.3 | 9.9 | 12.1 | 12.9 | 14.3 | 5 | 5.5 | 7 | 11.2 | 6.8 | 11.5 | 12.2 | 4.5 | 9.6 | 9.7 | 11.6 | 9.4 | 18.3 | 18.3 | -0.8

From the supplement of paper PMC8967900
